Experimental data as given in ChEMBL document CHEMBL1201862, “PubChem BioAssay data set” (2004).
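Dose response: 5 concentrations. Exposure: 48 h. Format: 96-well plates. Endpoint: linear interpolation; highest concentration if not reached. Abbreviation: GI50, concentration required for 50% inhibition of growth.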 Calls of active or inactive are those of the source. Cut-off read from the data, not from the text of the source: active = GI50 up to about 1.1 µM and inactive = higher.

Experiments:
Assay in all cases: NCI anticancer screen, dose series, 48 h
[1] = tested on: IGROV-1
[2] = tested on: HL-60
[3] = tested on: HCC 2998
[4] = tested on: LOX IMVI
[5] = tested on: UACC-257
[6] = tested on: EKVX
[7] = tested on: SF-295
[8] = tested on: MDA-MB-435
[9] = tested on: NCI-H460
[10] = tested on: MDA-N
[11] = tested on: RXF 393
[12] = tested on: CAKI-1
[13] = tested on: NCI-H226
[14] = tested on: SK-MEL-5
[15] = tested on: DU-145
[16] = tested on: BT-549
[17] = tested on: COLO 205
[18] = tested on: HOP-62
[19] = tested on: NCI/ADR-RES
[20] = tested on: OVCAR-8

Measured: GI50

O=C1OC(=O)C2C1C(c1ccccc1[N+](=O)[O-])C=C(c1ccco1)N2c1ccncc1 (stereo not given)
inactive: [1] 2.09 µM | [2] 1.77 µM | [3] 1.86 µM | [4] 1.87 µM | [5] 2.08 µM | [6] 15.2 µM | [7] 10.3 µM | [8] 8.39 µM | [9] 12.1 µM | [10] 4.52 µM | [11] 4.67 µM | [12] 16 µM | [13] 12.8 µM | [14] 4.09 µM | [15] 7.01 µM | [16] 11.6 µM | [17] 7.98 µM | [18] 15.3 µM | [19] 18.8 µM | [20] 10.7 µM
